The NIST ThermoML archive (doi:10.1021/je050540h)
± gives the expanded uncertainty stated by the source.

Assay: xn = mol fraction of the nth substance listed
Settings: Liquid

C1CCCCC1 [cyclohexane] + CCCC(C)O
x1 = 1
Settings	mass density, 293.15 K [kg/m3]	mass density, 298.15 K [kg/m3]	mass density, 303.15 K [kg/m3]	speed of sound, 293.15 K [m/s]	speed of sound, 298.15 K [m/s]	speed of sound, 303.15 K [m/s]	viscosity, 293.15 K [mPa·s]	viscosity, 298.15 K [mPa·s]	viscosity, 303.15 K [mPa·s]
7 kPa	–	–	–	1279 ± 3	1254 ± 3	1230 ± 3	–	–	–
101 kPa	778.62 ± 0.48	773.92 ± 0.49	769.19 ± 0.49	–	–	–	0.968 ± 0.024	0.887 ± 0.022	0.816 ± 0.021

CCC(C)O (stereo unspecified) [butan-2-ol] + C1CCCC1
101 kPa, x2 = 0
Settings	mass density [kg/m3]	speed of sound [m/s]	viscosity [mPa·s]
293.15 K	806.84 ± 0.47	1230 ± 3	3.623 ± 0.084
298.15 K	802.72 ± 0.48	1212 ± 3	2.995 ± 0.071
303.15 K	798.51 ± 0.48	1194 ± 3	2.493 ± 0.06

C1CCCC1 [cyclopentane] + CCCC(C)O
101 kPa
Settings	mass density, 293.15 K [kg/m3]	mass density, 298.15 K [kg/m3]	mass density, 303.15 K [kg/m3]	speed of sound, 293.15 K [m/s]	speed of sound, 298.15 K [m/s]	speed of sound, 303.15 K [m/s]	viscosity, 293.15 K [mPa·s]	viscosity, 298.15 K [mPa·s]	viscosity, 303.15 K [mPa·s]
x1 = 0.045	806.38 ± 0.48	802.28 ± 0.48	798.1 ± 0.49	1246 ± 3	1227 ± 3	1208 ± 3	3.573 ± 0.083	2.948 ± 0.07	2.459 ± 0.059
x1 = 0.103	802.8 ± 0.49	798.62 ± 0.49	794.35 ± 0.5	1239 ± 3	1220 ± 3	1200 ± 3	3.005 ± 0.071	2.509 ± 0.06	2.118 ± 0.051
x1 = 0.1878	797.38 ± 0.5	793.07 ± 0.51	788.68 ± 0.51	1229 ± 3	1209 ± 3	1189 ± 3	2.322 ± 0.056	1.969 ± 0.047	1.687 ± 0.041
x1 = 0.2924	790.57 ± 0.52	786.12 ± 0.53	781.6 ± 0.53	1218 ± 3	1198 ± 3	1177 ± 3	1.723 ± 0.042	1.491 ± 0.036	1.304 ± 0.032
x1 = 0.3906	783.89 ± 0.54	779.33 ± 0.55	774.71 ± 0.55	1209 ± 3	1188 ± 3	1167 ± 3	1.296 ± 0.032	1.148 ± 0.029	1.027 ± 0.026
x1 = 0.5117	775.68 ± 0.56	771.03 ± 0.57	766.32 ± 0.57	1201 ± 3	1179 ± 3	1157 ± 3	0.957 ± 0.025	0.87 ± 0.022	0.794 ± 0.021
x1 = 0.6242	768.16 ± 0.58	763.43 ± 0.59	758.63 ± 0.59	1197 ± 3	1175 ± 3	1152 ± 3	0.747 ± 0.02	0.694 ± 0.018	0.645 ± 0.017
x1 = 0.721	761.81 ± 0.6	756.98 ± 0.6	752.09 ± 0.61	1198 ± 3	1175 ± 3	1152 ± 3	0.629 ± 0.017	0.587 ± 0.016	0.548 ± 0.015
x1 = 0.8091	756.27 ± 0.61	751.36 ± 0.62	746.38 ± 0.62	1202 ± 3	1178 ± 3	1154 ± 3	0.552 ± 0.015	0.516 ± 0.015	0.487 ± 0.014
x1 = 0.9094	749.82 ± 0.63	744.82 ± 0.64	739.76 ± 0.64	1211 ± 3	1186 ± 3	1161 ± 3	0.482 ± 0.014	0.453 ± 0.013	0.428 ± 0.013
x1 = 0.9552	746.94 ± 0.64	741.92 ± 0.64	736.85 ± 0.65	1218 ± 3	1193 ± 3	1167 ± 3	0.455 ± 0.013	0.43 ± 0.013	0.407 ± 0.012
x1 = 1	744.52 ± 0.65	739.55 ± 0.65	734.54 ± 0.66	1232 ± 3	1206 ± 3	1180 ± 3	0.439 ± 0.013	0.416 ± 0.012	0.394 ± 0.012
